Results: the OligoGym collection
After the bases stand the sugars from the 5' end (letter, count) and the backbone: PS all phosphorothioate, else s phosphorothioate and o phosphodiester by linkage. Methylation of C is not given here. e = 2'-O-(2-methoxyethyl) (MOE); k = constrained ethyl (cEt); d = 2'-deoxy (DNA); m = 2'-O-methyl

Biological target: HSD17B13
Conditions: ASO, HepaRG

Sequence	target mRNA inhibition (1 µM) [%]	other results
TTAAGATACCCAGGTT (sugars k3 d10 k3, PS)	37	
GTAACGGTGATCAAAT (sugars k3 d10 k3, PS)	34	
CGGCACTCAGCTGCAG (sugars k3 d10 k3, PS)	55	
CTGATGTCAGACCTCT (sugars k3 d10 k3, PS)	35	
GTAAAATTATGCCTTG (sugars k3 d10 k3, PS)	50	
TATCAACCTGCACACC (sugars k3 d10 k3, PS)	62	
TGAACCGTATTCCCAA (sugars k3 d10 k3, PS)	76	target mRNA inhibition (0.02 µM): 26%; target mRNA inhibition (0.078 µM): 8%; target mRNA inhibition (0.313 µM): 59%; target mRNA inhibition (1.25 µM): 81%; target mRNA inhibition (5 µM): 93%
AATAGAGTCGGTCACC (sugars k3 d10 k3, PS)	58	
CGATGGAAGAAGTGCT (sugars k3 d10 k3, PS)	3	
CACCAACGACTCCAAG (sugars k3 d10 k3, PS)	16	
TAAGCAGAATTGTGAA (sugars k3 d1 m1 d8 k3, PS)	26	
GGGAGGTAGCTTTTGT (sugars k3 d1 m1 d8 k3, PS)	17	
CTAAAGGTTTCTGTTG (sugars k3 d10 k3, PS)	34	
GGTGCTGAGAAGATCG (sugars k3 d10 k3, PS)	33	
ACCAAGAGACACCACC (sugars k3 d10 k3, PS)	41	
AGTATTTGGGTGTTCT (sugars k3 d10 k3, PS)	17	
GTTATTCTCTTGACAA (sugars k3 d10 k3, PS)	42	
AAGTAAGGTAAAGTCT (sugars k3 d10 k3, PS)	20	
GAATGTAAAGGCTGGG (sugars k3 d10 k3, PS)	42	
GTCCACTTTTGGTGGA (sugars k3 d10 k3, PS)	14	
GGGAGGAGGTACTGTC (sugars k3 d10 k3, PS)	35	
TTAGGAAAGCTCATGG (sugars k3 d10 k3, PS)	26	
ATGTTGACCTCAAATG (sugars k3 d10 k3, PS)	0	
ATCCAGATCTGCCCTA (sugars k3 d10 k3, PS)	39	
AGTCCTTGTGTAGTCC (sugars k3 d10 k3, PS)	64	

Sequence	target mRNA inhibition (1 µM) [%]	other results
CGAATTTCTTCAAAGA (sugars k3 d10 k3, PS)	55	
TTTAGGGAGGTAGCTT (sugars k3 d10 k3, PS)	24	
CAGAAAGTTCATTCGA (sugars k3 d10 k3, PS)	67	
CAAAATGGTGGCGAGG (sugars k3 d10 k3, PS)	10	
TAAAGCTGCCTGCTGA (sugars k3 d10 k3, PS)	44	
CATAAGTAGTCTGCCT (sugars k3 d10 k3, PS)	31	
ATGAGAACAATCTCCC (sugars k3 d10 k3, PS)	65	target mRNA inhibition (0.02 µM): 0%; target mRNA inhibition (0.078 µM): 9%; target mRNA inhibition (0.313 µM): 40%; target mRNA inhibition (1.25 µM): 64%; target mRNA inhibition (5 µM): 78%
TTGCACCGTTTTGGGC (sugars k3 d1 m1 d8 k3, PS)	50	
ATGTCATAAAAATCGC (sugars k3 d10 k3, PS)	53	
GCAAAGTTAATAGGAC (sugars k3 d10 k3, PS)	52	
TTAGTCTTGATGTAGT (sugars kkdddddddddkekek, PS)	36	
TGGCTACAGATTGGAA (sugars k3 d10 k3, PS)	55	
GTTAGAATAGTCTTCA (sugars k3 d1 m1 d8 k3, PS)	42	
TGACATAGACATGTGT (sugars k3 d10 k3, PS)	42	
TTTGTTAGAGTGCTTA (sugars k3 d10 k3, PS)	80	target mRNA inhibition (0.02 µM): 12%; target mRNA inhibition (0.078 µM): 30%; target mRNA inhibition (0.313 µM): 56%; target mRNA inhibition (1.25 µM): 86%; target mRNA inhibition (5 µM): 89%
AAGTTAGCCCCCAGGA (sugars k3 d10 k3, PS)	36	
ATTAAGACAGTTGAGT (sugars k3 d10 k3, PS)	34	
CTGAGCTAGACAATTG (sugars k3 d10 k3, PS)	56	
AGACTTTGAGACTCTT (sugars kkdddddddddkekek, PS)	55	
GATACCCAGGTTGCTT (sugars k3 d10 k3, PS)	53	
AGCTATTGTCTTTGAT (sugars k3 d10 k3, PS)	39	
CGTGGCCGCACACTGA (sugars k3 d10 k3, PS)	42	
AGGGAAGATCTGGCTG (sugars k3 d10 k3, PS)	4	
GATACTTACCAATATG (sugars k3 d10 k3, PS)	22	
GCTGCTAGTGCCAAAC (sugars k3 d10 k3, PS)	67	

Sequence	target mRNA inhibition (1 µM) [%]	other results
TAAGTGTAAGAGACAT (sugars k3 d10 k3, PS)	63	
GGCAAAGATCTGGCCA (sugars k3 d10 k3, PS)	10	
TCATCGATGGAAGAAG (sugars k3 d10 k3, PS)	24	
AAATTGTCTAAACATC (sugars k3 d10 k3, PS)	24	
TTACATCACCCACTTC (sugars k3 d10 k3, PS)	37	
TTGGCCGAGGAGGGCG (sugars k3 d10 k3, PS)	3	
ATCTTATAAGACTATA (sugars k3 d9 k3 e1, PS)	53	
TGTATCTTATAAGACT (sugars k3 d10 k3, PS)	45	
TCTATAGCTAAGTATA (sugars k3 d10 k3, PS)	0	
GCTAAGTATACTTTCT (sugars k3 d10 k3, PS)	37	
TGTCATAAAGGTGGGA (sugars k3 d10 k3, PS)	48	
CGGTCACCTTTCATAA (sugars k3 d9 k3 e1, PS)	67	
TTCTTGCAGAAATTCA (sugars k3 d10 k3, PS)	42	
CAACCAAACTTCCAGC (sugars k3 d10 k3, PS)	72	
GTTTAGCAATTTAGCA (sugars k3 d10 k3, PS)	50	
ATGTATCTTATAAGAC (sugars k3 d9 k3 e1, PS)	24	
CAGGUTGAGATAAAGC (sugars k3 d1 m1 d8 k3, PS)	55	
CATCTCTGGGACCAAG (sugars k3 d10 k3, PS)	51	
CAAGATTAGTCTTGAT (sugars k3 d10 k3, PS)	27	
CATATGTGAAGAGCTG (sugars k3 d9 k3 e1, PS)	50	
AATAUGGGATGAGGTA (sugars k3 d1 m1 d8 k3, PS)	38	
CCATCCCCTAAGTTAT (sugars k3 d10 k3, PS)	14	
AATTTTCGGGTTCTTA (sugars k3 d10 k3, PS)	35	
TCGGTCACCTTTCATA (sugars k3 d10 k3, PS)	64	
TGTACAGTAGGCAGTT (sugars k3 d10 k3, PS)	75	

Sequence	target mRNA inhibition (1 µM) [%]	other results
TCCTCCACACCGCGCT (sugars k3 d10 k3, PS)	20	
AATATAGAGGGTCCAC (sugars k3 d10 k3, PS)	7	
GTTTAACTTTCCTCCG (sugars k3 d10 k3, PS)	30	
TTTCTAAATTACTCCG (sugars k3 d10 k3, PS)	54	
AGAGCATAAGTTACCA (sugars k3 d10 k3, PS)	88	target mRNA inhibition (0.02 µM): 4%; target mRNA inhibition (0.078 µM): 11%; target mRNA inhibition (0.313 µM): 50%; target mRNA inhibition (1.25 µM): 78%; target mRNA inhibition (5 µM): 79%
TTCTAAATTACTCCGT (sugars k3 d10 k3, PS)	53	
TTAGTATAGTTATCTT (sugars kkdddddddddkekek, PS)	33	
AGATCCCGTTCTTGCC (sugars k3 d10 k3, PS)	68	target mRNA inhibition (0.02 µM): 0%; target mRNA inhibition (0.078 µM): 20%; target mRNA inhibition (0.313 µM): 47%; target mRNA inhibition (1.25 µM): 72%; target mRNA inhibition (5 µM): 76%
ATTAGATGGTAAGGAG (sugars k3 d10 k3, PS)	4	
GAGGTTTTGATACCAG (sugars k3 d10 k3, PS)	59	
GAGGTAAGGAATCCCT (sugars k3 d10 k3, PS)	27	
TCTATCAGACTTCTTA (sugars k3 d10 k3, PS)	49	
TTGACTGCTGCTAGTG (sugars kkdddddddddkekek, PS)	29	
GCTAATGTATGAGGTC (sugars k3 d10 k3, PS)	78	target mRNA inhibition (0.02 µM): 0%; target mRNA inhibition (0.078 µM): 0%; target mRNA inhibition (0.313 µM): 34%; target mRNA inhibition (1.25 µM): 64%; target mRNA inhibition (5 µM): 82%
AGACAATGACATAGAC (sugars k3 d10 k3, PS)	14	
GGCTTAATTTTCGGGT (sugars k3 d10 k3, PS)	17	
ACATCTCTGGGACCAA (sugars k3 d1 m1 d8 k3, PS)	68	
CTCGCCTAAAGGAGAT (sugars k3 d10 k3, PS)	56	
CACACCGCGCTTATTA (sugars k3 d10 k3, PS)	11	
TAACTACAAGAGGTTA (sugars k3 d10 k3, PS)	22	
ACTTTTAGTCAGGTAG (sugars k3 d10 k3, PS)	26	
GATTACCCCTGGCTTT (sugars k3 d10 k3, PS)	31	
TCTCTGGGACCAAGGA (sugars k3 d10 k3, PS)	56	
CATTCTAAACTACTAT (sugars k3 d10 k3, PS)	11	
TAGCTGTGCACTCATT (sugars kkdddddddddkekek, PS)	53	
